These results are taken from US9782484B2, “Method for producing a composite organic compound powder for medical use” (ACTIVUS PHARMA CO., LTD., priority 2008, dated 2017).

Structures are written as SMILES.

A short description of data set [1]: Size distribution of particles in suspension by particle size distribution analyzer (Delsa Nano S). The following applies: starting compound suspended with 0.03% sodium lauryl sulfate. It counts as physicochemical. Here is the method:
Fine-pulverizing experiments will now be described in each of which a carboxyvinyl polymer and a lecithin were added. The average particle diameter before and after fine-pulverizing for a powder was measured using a BET type specific surface area analyzer (Macsorb model HM-1201, from Mountech Co., Ltd.). The particle diameter of particles in a suspension was measured using a particle size distribution analyzer (Delsa Nano S, from Beckman Coulter, Inc.). “D50” is the diameter of a particle having an integrated value of 50% as counted in order of decreasing particle size (or in order of increasing particle size) (called “median particle diameter”) in the size distribution. “D90” is the diameter of a particle having an integrated value of 90% as counted in order of increasing particle size (called “90% median diameter”) in the size distribution. “Dv” is the volume average diameter (called “average particle diameter”).
An experiment of improving a collection efficiency by addition of a lecithin to fine-pulverized particles will now be described. Unless otherwise stated, the average particle diameter of particles was measured using a BET type specific surface area analyzer (Macsorb model HM-1201, from Mountech Co., Ltd.). The particle diameter of particles in a suspension was measured using a particle size distribution analyzer (Delsa Nano S, from Beckman Coulter, Inc.). “D50” is the diameter of a particle having an integrated value of 50% as counted in order of decreasing particle size (or in order of increasing particle size) (called “median particle diameter”) in the size distribution. “D90” is the diameter of a particle having an integrated value of 90% as counted in order of increasing particle size (called “90% median diameter”) in the size distribution. “Dv” is the volume average diameter (called “average particle diameter”).

The nature of data set [2]: Average particle diameter of dried powder converted from BET specific surface area. It counts as physicochemical. Conditions: starting organic compound powder, Table 1 and text. On the procedure: According to the present invention, the “average particle diameter converted from the BET specific surface area” is calculated by converting a value of the specific surface area measured by the BET flow method (one-point type) to the diameter of a hypothetical spherical particle. The following formula 1 is a conversion formula for converting a value of the specific surface area to the diameter. Here, D is an average particle diameter, ρ is a solid density, S is a specific surface area, and α is a shape factor. α is 6 for spherical particles. D=α/(ρ·S) (formula 1)
The BET flow method is preferably a method for measuring the specific surface area by the following procedure. A mixed gas of nitrogen and helium is flowed into a cell in which a sample to be measured is placed, followed by cooling the sample with liquid nitrogen. Then, only nitrogen gas adsorbs to the surface of the sample. Subsequently, when the cell is returned to ordinary temperature, the desorption of the gas occurs. During the desorption of gas, the proportion of nitrogen gas in the mixed gas flowing through one detector becomes larger than the proportion of nitrogen gas flowing through another detector. The difference between signals from these detectors represents the adsorption amount, enabling the measurement of the specific surface area.
Fine-pulverizing experiments are first described in each of which a carboxyvinyl polymer was added. The average particle diameter before and after fine-pulverizing for a dried powder was calculated by converting, by the above-described formula 1, the BET specific surface area measured using a BET type specific surface area analyzer (Macsorb model […], from Mountech Co., Ltd.). The observation of the powder before and after fine-pulverizing was carried out using a scanning electron microscope (model SEM VE-7800, from Keyence Corporation).
Fine-pulverizing experiments will now be described in each of which a carboxyvinyl polymer and a lecithin were added. The average particle diameter before and after fine-pulverizing for a powder was measured using a BET type specific surface area analyzer (Macsorb model HM-1201, from Mountech Co., Ltd.). The particle diameter of particles in a suspension was measured using a particle size distribution analyzer (Delsa Nano S, from Beckman Coulter, Inc.). “D50” is the diameter of a particle having an integrated value of 50% as counted in order of decreasing particle size (or in order of increasing particle size) (called “median particle diameter”) in the size distribution. “D90” is the diameter of a particle having an integrated value of 90% as counted in order of increasing particle size (called “90% median diameter”) in the size distribution. “Dv” is the volume average diameter (called “average particle diameter”). […]

`Nc1nc2c(ncn2COCCO)c(=O)[nH]1` [aciclovir]: in data set [1], the “90% median diameter (D90) before fine-pulverizing” value is 69,371 nm, the “average particle diameter (Dv) before fine-pulverizing” value is reported as 60,371 nm and the “median particle diameter (D50) before fine-pulverizing” value is 52,997 nm. For `C[C@@H]1[C@H](O)[C@@H](C)/C=C/C=C/C=C/C=C/C=C/C=C/C=C/[C@H](O[C@@H]2O[C@H](C)[C@@H](O)[C@H](N)[C@@H]2O)C[C@@H]2O[C@](O)(C[C@@H](O)C[C@@H](O)[C@H](O)CC[C@@H](O)C[C@@H](O)CC(=O)O[C@H]1C)C[C@H](O)[C@H]2C(=O)O` [amphotericin B], in that order: 15,181 nm, 13,423 nm and 11,843 nm. For the compound `O=C(O)Cc1ccc(-c2ccccc2)cc1` [felbinac], in data set [2], the “Average Particle Diameter before Fine-pulverizing” value is 34,000 nm. As for `CCC(=O)O[C@]1(C(=O)SCF)[C@H](C)C[C@H]2[C@@H]3C[C@H](F)C4=CC(=O)C=C[C@]4(C)[C@@]3(F)[C@@H](O)C[C@@]21C` [fluticasone propionate], the “Average Particle Diameter before Fine-pulverizing” value in data set [2] is 7,850 nm. Turning to `COc1ccc2c(c1)c(CC(=O)O)c(C)n2C(=O)c1ccc(Cl)cc1` [indomethacin], in data set [2], the “Average Particle Diameter before Fine-pulverizing” value is listed as 3,960 nm. `Clc1ccc(COC(Cn2ccnc2)c2ccc(Cl)cc2Cl)c(Cl)c1` (stereo not shown) [miconazole]: in data set [2], the “Average Particle Diameter before Fine-pulverizing” value is on record as 10,900 nm.
